The text below walks through data of patent US6716878B1, “Antimicrobial agents” (Vernalis (Oxford) Limited, priority 1999, dated 2004).

≈ marks a conversion by molar mass, not a printed value.

Experiment [1] deals with Staphylococcus capitis (American Type Culture Collection number 35661). As to the kind of experiment: Minimal inhibitory concentration (MIC) against Staphylococcus capitis, two fold serial dilutions in 2xYT broth. The class given is cell-based. Conditions: ATCC35661, Staphylococcus capitis ATCC 35661, 37° C., 18 hours, lowest drug concentration that inhibited visible growth, read-out: MIC (S. capitis). As to the method: (§1) Where MIC values are quoted for the compounds of the examples, those results were obtained by the method described in the Biological Example.
(§2) Minimal inhibitory concentrations (MIC) of inhibitors against E. coli strain DH5α (Genotype; F-φ80d/acZΔM 15Δ(lacZYA-argF)U 169 deoR recA1 endA1 hsdR17(rk^−, mk^+)phoA supE44λ^−thi-1 gyrA96 re/A1) obtained from GibcoBRL Life Technologies, or Staphylococcus capitis (American Type Culture Collection number 35661) were determined as follows. Stock solutions of each test compound were prepared by dissolution of the compound in dimethylsulfoxide at 10 mM. For the determination of the minimal inhibitory concentration, two fold serial dilutions were prepared in 2×YT broth (typtone 16 g/l, yeast extract 10 g/l, sodium chloride 5 g/l obtained from BIO 101 Inc, 1070 Joshua Way, Vista, Calif. 92083, USA) to yield 0.05 ml compound-containing medium per well. Inocula were prepared from cultures grown overnight in 2×YT broth at 37° C. Cell densities were adjusted to absorbance at 660 nm (a660)=0.1; the optical density-standardised preparations were diluted 1:1000 in 2×YT broth; and each well inoculated with 0.05 ml of the diluted bacteria. Microtiter plates were incubated at 37° C. for 18 hours in a humidified incubator. The MIC (μM) was recorded as the lowest drug concentration that inhibited visible growth.

The next experiment deals with E. coli strain DH5α. As to the kind of experiment: Minimal inhibitory concentration (MIC) against E. coli, two fold serial dilutions in 2xYT broth. Conditions: Escherichia coli; E. coli strain DH5α; 2xYT broth, 37° C., 18 hours; lowest drug concentration that inhibited visible growth; read-out: MIC (E. coli). The class given is cell-based. As to the method: as §1, §2

A word on the MIC: it is the least concentration at which growth counts as inhibited. Turning to `CCCC[C@H](CN(O)C=O)C(=O)N[C@H](C(=O)c1ccc(F)cc1)C(C)(C)C` [Example 1, 2(R)-[(N-Formyl-N-hydroxyamino)-methyl]-hexanoic Acid-(1′(S)-(4-fluorobenzoyl)-2′,2′-dimethylpropyl)amide], the results for the MIC (in experiment [1]; in the experiment with E. coli strain DH5α) were 25 µM (≈ 9.51 µg/mL) and 12.5 µM (≈ 4.76 µg/mL), respectively. Regarding `CCCC[C@H](CN(O)C=O)C(=O)N[C@H](C(=O)c1ccc(OC)cc1)C(C)(C)C` [Example 2], the MIC came out at 6.25 µM (≈ 2.45 µg/mL) in experiment [1] and 12.5 µM (≈ 4.91 µg/mL) in the experiment on E. coli strain DH5α. The like results for `CCCC[C@H](CN(O)C=O)C(=O)N[C@H](C(=O)C1CCCCC1)C(C)C` [Example 3, 2(R)-[(N-Formyl-N-hydroxyamino)-methyl]-hexanoic Acid-(1′(S)-cyclohexanecarbonyl-2′-methylpropyl)amide] were, in that order, 25 µM (≈ 8.86 µg/mL) and 50 µM (≈ 17.7 µg/mL).

For the molecule `CC(C)(C)[C@H](NC(=O)[C@H](CC1CCCC1)CN(O)C=O)C(=O)c1ccc(F)cc1` [Example 4, 3-Cyclopentyl-2(R)-[(N-formyl-N-hydroxyamino)-methyl]-N-[1′(S)-(4-fluorobenzoyl)-2′,2′-dimethylpropyl]propionamide], the MIC (in experiment [1]; in the experiment with E. coli strain DH5α) was 3.1 µM (≈ 1.26 µg/mL) in each case. Regarding `COc1ccc(C(=O)[C@@H](NC(=O)[C@H](CC2CCCC2)CN(O)C=O)C(C)(C)C)cc1` [Example 5, 3-Cyclopentyl-2(R)-[(N-formyl-N-hydroxyamino)-methyl]-N-[1′(S)-(4-methoxybenzoyl)-2′,2′-dimethylpropyl]propionamide], the MIC in experiment [1] amounted to 1.6 µM (≈ 0.67 µg/mL); in the experiment with E. coli strain DH5α, 3.1 µM (≈ 1.3 µg/mL).

With `CCCC[C@H](CN(O)C=O)C(=O)N[C@H](C(=O)c1nccn1C)C(C)(C)C` [Example 6, 2(R)-[(N-Formyl-N-hydroxyamino)-methyl]-hexanoic Acid-[2,2-dimethyl-1(S)(1-methyl-1H-imidazole-2-carbonyl)-propyl]-amide], the minimum inhibitory concentration (MIC) in experiment [1] was 200 µM (≈ 73.3 µg/mL); in the experiment on E. coli strain DH5α, 25 µM (≈ 9.16 µg/mL).

For `CCCC[C@H](CN(O)C=O)C(=O)N[C@H](C(=O)c1ccccn1)C(C)(C)C` [Example 7, 2(R)-[(N-Formyl-N-hydroxyamino)-methyl]-hexanoic Acid-[2,2-dimethyl-1(S)-(pyridine-2-carbonyl)-propyl]-amide], the results for the minimal inhibitory concentration (MIC) (in experiment [1]; with E. coli strain DH5α) were 50 µM (≈ 18.2 µg/mL) and 12.5 µM (≈ 4.54 µg/mL), respectively. On the same counts, the results for `CCCC[C@H](CN(O)C=O)C(=O)N[C@H](C(=O)c1cc2ccccc2o1)C(C)(C)C` [Example 8, 2(R)-[(N-Formyl-N-hydroxyamino)-methyl]-hexanoic Acid-(1′(S)-(benzofuran-2-carbonyl)-2′,2′-dimethylpropyl)amide] are 1.6 µM (≈ 0.644 µg/mL) and 6.25 µM (≈ 2.52 µg/mL).

Take `CC(C)(C)[C@H](NC(=O)[C@H](CC1CCCC1)CN(O)C=O)C(=O)c1cc2ccccc2o1` [Example 9, N-[1(S)-(Benzofuran-2-carbonyl)-2,2-dimethylpropyl]-3′-cyclopentyl-2′(R)-[(N-formyl-N-hydroxyamino)-methyl]-propionamide]: the MIC in experiment [1] is 0.7 µM (≈ 0.3 µg/mL); with E. coli strain DH5α it was 6.25 µM (≈ 2.68 µg/mL).

`CCCC[C@H](CN(O)C=O)C(=O)N[C@H](C(=O)c1ccc(OC)cc1OC)C(C)(C)C` [Example 11, 2(R)-[(N-Formyl-N-hydroxyamino)-methyl]-hexanoic Acid [1′-(2,4-dimethoxy-benzoyl)-2′,2′-dimethylpropyl]-amide]: the minimal inhibitory concentration (MIC) (in experiment [1]; in the experiment with E. coli strain DH5α) was 25 µM (≈ 10.6 µg/mL) in each case. Regarding `CCCC[C@H](CN(O)C=O)C(=O)N[C@H](C(=O)c1ccc(O)cc1)C(C)(C)C` [Example 12, 2(R)-[(N-Formyl-N-hydroxyamino)-methyl]-hexanoic Acid [1′(S)-(4-hydroxy-benzoyl)-2′,2′-dimethylpropyl]-amide], the MIC in experiment [1] turned out to be 12 µM (≈ 4.54 µg/mL); in the experiment with E. coli strain DH5α it was 6.25 µM (≈ 2.37 µg/mL).

On to `CCCC[C@H](CN(O)C=O)C(=O)N[C@H](C(=O)Cc1ccccn1)C(C)(C)C` [Example 15, 2(R)-[(N-Formyl-N-hydroxyamino)-methyl]-hexanoic Acid-(1′(S)-tert-butyl-2′-oxo-3′-pyridin-2-yl-propyl) Amide], for which the MIC in experiment [1] turned out to be 100 µM (≈ 37.7 µg/mL).
